pIC50: −log10 of the molar value.

In assay [1] the test system is Radical scavenging activity. In words: Antioxidant activity assessed as DPPH radical scavenging activity. Type of assay: functional.
Assay [2] can be described thus: Antioxidant activity assessed as ABTS radical scavenging activity by decolorization assay. Type of assay: functional.
Another assay concerns HepG2. The assay is described as follows: Cytotoxicity against human HepG2 by MTT assay. The assay is classed as functional, cell-based.
In another assay the test system is HL-60. The assay is described as follows: Cytotoxicity against human HL60 by MTT assay. The assay is classed as functional, cell-based.

Take `C/C=C(/C)C(=O)OCc1c(C(C)=O)c(O)c(OC)c2c1[C@@H](C)CC=C2`: the pIC50 in assay [1] and in assay [2] was less than 3.70 in each case.

In the case of `C/C=C(/C)C(=O)OCc1c(C(C)=O)c(O)c(OC)c2c1[C@@H](C)[C@@H](O)C=C2`, the pIC50 in assay [1] and in assay [2] was less than 3.70 in each case.

Consider `C/C=C(/C)C(=O)OCc1c(C(C)=O)c(O)c(OC)c2c1[C@@H](C)[C@@H]1O[C@@H]1[C@H]2O`, for which the pIC50 in assay [1] and in assay [2] was less than 3.70 each time.

As for `C/C=C(/C)C(=O)OCc1c2c(c(OC)c3occ(C)c13)C(=O)[C@H]1O[C@H]1[C@@H]2C`, the pIC50 in assay [1] was less than 3.70; in the assay with HepG2, 4.56; in assay [2], less than 3.70; with HL-60 it was 4.30.

`CCCCCCCCCCCCCCCC(=O)O[C@H]1CC(C)(C)C2=CC(=O)O[C@]2(C)C1`: the pIC50 in assay [1] is less than 3.70; in assay [2], less than 3.70; in the assay on HL-60, 4.32.

Take `CO[C@@]12[C@H](COC(N)=O)C3=C(C(=O)C(C)=C(N)C3=O)N1C[C@@H]1N[C@@H]12` [MITOMYCIN]: the figures for the pIC50 in the assay on HepG2 and with HL-60 were 5.27 and 5.82, respectively.

In the case of `Cc1c(C)c2c(c(C)c1O)CCC(C)(C(=O)O)O2` (configuration not stated) [TROLOX], the pIC50 in assay [1] and in assay [2] was 4.88 throughout.

These data come from ChEMBL document CHEMBL1641394, “Terpenoids from the aerial parts of Parasenecio deltophylla” (J Nat Prod, 2010).
